Like-named read-outs stand apart in the source and are kept apart here. Marks after values point to notes of the source that are not given here.
Columns and labels:
HQF DNA [d(T2AG3)4] = experiment: SYBR Green melting study with HQF DNA; assay type: binding, human; settings: melting temperature of HQF DNA (5 µM) in presence of 1 µM ligand
Description: When quadruplex DNA melts to form ssDNA structure, SG fluorescence intensity gradually reduces as SG has no binding to ssDNA. Each time, 5 µM of HQF DNA [d(T2AG3)4)], 5 µM of dsDNA (prepared by mixing equal concentration of poly-dA-dT and poly-dT-dA), 5 µM ssDNA ( poly dT alone) and 1 µM of each ligand was incubated at 4°C for 16 h, and used for melting studies. […] Affinity, stoichiometry and thermodynamic parameters for quadruplex-ligand complex were studied with 60 µM of ligand and 10 µM of HQF DNA using Microcal VP-ITC (Northampton, MA, USA). Ligand addition to G-quadruplex DNA was made every 180 seconds. Titration experiments were performed thrice and blank correction was made each time to minimize error.

B16F10 = experiment: Cell count assay (trypan blue); assay type: cell-based, human
Description: (§1) Normal and tumor cell lines were seeded at 20000–40000 cells/cm^2 with 0.2 mL/cm^2 media and incubated for 48 h at 37°C, 6% CO2, 95% relative humidity. […] After 24 h and 48 h of incubation, cells were washed with 300 µl PBS or 0.02% EDTA, trypsinized, followed by harvesting at 37°C. 200 µl cell suspension was transferred into 1.5 ml microcentrifuge tube. To the cell suspension, 300 µl PBS followed by 500 µl of 0.4% trypan blue solution was added. To get the homogenised solution, the microcentrifuge tube was gently tapped for 5 min, 20 µl of cell suspension was loaded in to a chamber of the haemocytometer.

A549 = experiment: Cell count assay (trypan blue); assay type: cell-based, human;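 on Number of viable cells after 24 h of ligand treatment: each ligand tested at its own IC50 concentration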
Description: as §1

MCF-7 = experiment: Cell count assay (trypan blue); assay type: cell-based, human;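 on Number of viable cells after 48 h of ligand treatment: each ligand tested at its own IC50 concentration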
Description: as §1

[1] = Cell count assay (trypan blue); assay type: cell-based; design: concentration or dose not given beside the values; settings: human; for viability at 24 h: read-out: Number of viable cells after 24 h of ligand treatment; for viability at 48 h: read-out: Number of viable cells after 48 h of ligand treatment
Description: as §1

COc1ccc(-c2c(-c3ccccc3)nnn2CC2CCCCO2)cc1 (stereo not shown) [Ligand L14, 5-(4-Methoxyphenyl)-4-phenyl-1-((tetrahydro-2H-pyran-2-yl)methyl)-1H-1,2,3-triazole]
Tm (HQF DNA [d(T2AG3)4]): 27 ^o C
Number of viable cells after 24 h of ligand treatment (B16F10; B16F10, 24 h): + (Viable cells in the range of 80%–90%)
Number of viable cells after 48 h of ligand treatment (B16F10; B16F10, 48 h): ++ (Viable cells in the range of 50%–60%)
Number of viable cells after 24 h of ligand treatment (A549; A549, 24 h): + (Viable cells in the range of 80%–90%)
Number of viable cells after 48 h of ligand treatment (A549; A549, 48 h): ++ (Viable cells in the range of 50%–60%)
Number of viable cells after 24 h of ligand treatment (MCF-7; MCF-7, 24 h): + (Viable cells in the range of 80%–90%)
Number of viable cells after 48 h of ligand treatment (MCF-7; MCF-7, 48 h): ++ (Viable cells in the range of 50%–60%)
viability at 24 h ([1]; CRL-2115 cells (normal cell line), CRL-2115, 24 h): 80 to 90%
viability at 48 h ([1]; CRL-2115 cells (normal cell line), CRL-2115, 48 h): 80 to 90%
viability at 24 h ([1]; CRL-2120 cells (normal cell line), CRL-2120, 24 h): 80 to 90%
viability at 48 h ([1]; CRL-2120 cells (normal cell line), CRL-2120, 48 h): 80 to 90%
viability at 24 h ([1]; NCM-460 cells (normal cell line), NCM-460, 24 h): 80 to 90%
viability at 48 h ([1]; NCM-460 cells (normal cell line), NCM-460, 48 h): 50 to 60%
